Source: patent publication US6737383B1, “Herbicidal oxadiazolidines” (priority 1999, dated 2004)

Tests used:
rice = assay: Test B flood test rice; format: in vivo, Oryza sativa
In short: (§1)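 Flood test on plants grown to the 2-leaf stage; treated plants kept in greenhouse twelve to sixteen days, then visually rated against controls on a 0 (no effect) to 10 (complete control) scale.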

giant foxtail = assay: Test B pre/postemergence giant foxtail; format: in vivo, Setaria faberii
In short: (§2)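 Test chemicals in a non-phytotoxic solvent mixture with surfactant were sprayed preemergence onto planted seeds and postemergence onto plants 2 to 18 cm tall (1- to 4-leaf stage). After twelve to sixteen days in a greenhouse, injury was visually rated against untreated controls from 0 (no effect) to 10 (complete control).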

morningglory = assay: Test B pre/postemergence morningglory; format: in vivo, Ipomoea hederacea
In short: as §2

duck salad = assay: Test B flood test duck salad; format: in vivo, Heteranthera limosa
In short: as §1

[1] = Pre-emergence, Rate 1000 g/ha, scale 0 to 10 (0 no effect, 10 complete control)
[2] = Rate 125 g/ha, Pre-emergence, flood test species, scale 0 to 10 where 0 is no effect and 10 is complete control
[3] = Rate 250 g/ha, Pre-emergence, flood-test species, scale 0 to 10, 0 is no effect, 10 is complete control
[4] = Preemergence, Rate 62 g/ha, scale of 0 to 10 where 0 is no effect and 10 is complete control
[5] = Preemergence, Rate 250 g/ha, scale of 0 to 10 where 0 is no effect and 10 is complete control
[6] = Preemergence, Rate 500 g/ha, scale of 0 to 10 where 0 is no effect and 10 is complete control
[7] = Rate 62 g/ha, Postemergence, scale 0 to 10, 0 no effect, 10 complete control
[8] = Rate 125 g/ha, Postemergence, scale of 0 to 10 where 0 is no effect and 10 is complete control
[9] = Rate 250 g/ha, Postemergence, scale of 0 to 10 where 0 is no effect and 10 is complete control
[10] = Rate 500 g/ha, Postemergence, scale 0 to 10, 0 no effect, 10 complete control
[11] = Rate 62 g/ha, flood test species, Pre-emergence, visual evaluation after twelve to sixteen days
[12] = Rate 125 g/ha, under heading Pre-emergence, flood test species, visual evaluation after twelve to sixteen days
[13] = Rate 250 g/ha, Pre-emergence (flood test species), scale 0 to 10, 0 is no effect, 10 is complete control
[14] = Rate 500 g/ha, Pre-emergence, flood test species, scale 0 to 10 (0 no effect, 10 complete control)
[15] = Postemergence, Rate 125 g/ha, scale 0 to 10, 0 is no effect, 10 is complete control
[16] = Postemergence, Rate 250 g/ha, scale 0 to 10
[17] = Postemergence, Rate 500 g/ha, scale of 0 to 10 where 0 is no effect and 10 is complete control
[18] = Preemergence, Rate 125 g/ha, scale 0 to 10, 0 is no effect, 10 is complete control
[19] = Preemergence, Rate 250 g/ha, scale 0 to 10, 0 is no effect, 10 is complete control
[20] = Preemergence, Rate 500 g/ha, scale 0 to 10, 0 is no effect, 10 is complete control
[21] = Postemergence block (flood test species), Rate 250 g/ha, scale 0 to 10
[22] = Postemergence section (flood test species), Rate 500 g/ha, scale of 0 to 10 where 0 is no effect and 10 is complete control
[23] = Rate 125 g/ha, Postemergence section (flood test species), scale 0 to 10, 0 is no effect, 10 is complete control
[24] = Preemergence, Rate 62 g/ha, scale 0 to 10 (0 no effect, 10 complete control)
[25] = Preemergence, Rate 125 g/ha, scale of 0 to 10 where 0 is no effect and 10 is complete control
[26] = Rate 125 g/ha, Postemergence, scale 0 to 10, 0 is no effect, 10 is complete control

SMILES: CC(C)N(C(=O)n1oc(=O)n(CC2CCCC2)c1=O)c1ccc(F)cc1 [Compound 322]
- Rice plant response rating (rice; [1]): 0
- Rice plant response rating (rice; [2]): 0
- Rice plant response rating (rice; [3]): 0
- Giant foxtail plant response rating (giant foxtail; [4]): 6
- Giant foxtail plant response rating (0 to 10 scale) (giant foxtail; Preemergence, Rate 125 g/ha): 9
- Giant foxtail plant response rating (giant foxtail; [5]): 9
- Giant foxtail plant response rating (giant foxtail; [6]): 10
- Giant foxtail plant response rating (giant foxtail; [7]): 0
- Giant foxtail plant response rating (giant foxtail; [8]): 0
- Plant response rating, Giant foxtail (giant foxtail; [9]): 1
- Plant response rating, Giant foxtail (giant foxtail; [10]): 4
- Morningglory plant response rating (morningglory; [4]): 0
- Morningglory plant response rating (0 to 10 scale) (morningglory; Preemergence, Rate 125 g/ha): 0
- Morningglory plant response rating (morningglory; [5]): 0
- Morningglory plant response rating (morningglory; [6]): 0
- Morningglory plant response rating (morningglory; [7]): 4
- Morningglory plant response rating (morningglory; [8]): 4
- Plant response rating, Morningglory (morningglory; [9]): 7
- Plant response rating, Morningglory (morningglory; [10]): 8
- Ducksalad plant response rating (duck salad; [1]): 0
- Ducksalad plant response rating (duck salad; [2]): 0
- Ducksalad plant response rating (duck salad; [3]): 0

SMILES: CC(C)N(C(=O)n1oc(=O)n(Cc2cnc(Cl)s2)c1=O)c1ccc(F)cc1 [Compound 482]
- Plant response rating, Rice (0 to 10 scale, 0 is no effect, 10 is complete control) (rice; [11]): 0
- Rice plant response rating (0 to 10 scale, 0 is no effect, 10 is complete control) (rice; [12]): 0
- Rice plant response rating (rice; [13]): 0
- Rice plant response rating (rice; [14]): 0
- Giant foxtail plant response rating (giant foxtail; [15]): 0
- Giant foxtail plant response rating (giant foxtail; [16]): 0
- Giant foxtail plant response rating (giant foxtail; [17]): 2
- Plant response rating, Giant foxtail (giant foxtail; [4]): 1
- Giant foxtail plant response rating (giant foxtail; [18]): 6
- Giant foxtail plant response rating (giant foxtail; [19]): 8
- Giant foxtail plant response rating (giant foxtail; [20]): 9
- Giant foxtail plant response rating (giant foxtail; [7]): 0
- Morningglory plant response rating (morningglory; [15]): 7
- Morningglory plant response rating (morningglory; [16]): 8
- Plant response rating, Morningglory (morningglory; [4]): 0
- Morningglory plant response rating (morningglory; [18]): 0
- Morningglory plant response rating (morningglory; [19]): 0
- Morningglory plant response rating (morningglory; [20]): 0
- Morningglory plant response rating (morningglory; [7]): 5
- Plant response rating, Ducksalad (0 to 10 scale, 0 is no effect, 10 is complete control) (duck salad; [11]): 0
- Ducksalad plant response rating (0 to 10 scale, 0 is no effect, 10 is complete control) (duck salad; [12]): 0
- Ducksalad plant response rating (duck salad; [13]): 0
- Ducksalad plant response rating (duck salad; [14]): 0

SMILES: CC(C)N(C(=O)n1oc(=O)n(CC2=NOCCC2)c1=O)c1ccccc1 [Compound 430]
- Rice plant response rating (rice; [21]): 0
- Rice plant response rating (rice; [22]): 0
- Rice plant response rating (rice; [23]): 0
- Giant foxtail plant response rating (giant foxtail; [16]): 9
- Giant foxtail plant response rating (giant foxtail; [17]): 9
- Plant response rating, Giant foxtail (giant foxtail; [24]): 10
- Plant response rating, Giant foxtail (giant foxtail; [25]): 10
- Giant foxtail plant response rating (giant foxtail; [19]): 10
- Giant foxtail plant response rating (giant foxtail; [20]): 10
- Giant foxtail plant response rating (giant foxtail; Rate 62 g/ha, Postemergence, scale of 0 to 10 where 0 is no effect and 10 is complete control): 6
- Giant foxtail plant response rating (giant foxtail; [26]): 8
- Morningglory plant response rating (morningglory; [16]): 3
- Morningglory plant response rating (morningglory; [17]): 3
- Plant response rating, Morningglory (morningglory; [24]): 0
- Plant response rating, Morningglory (morningglory; [25]): 0
- Morningglory plant response rating (morningglory; [19]): 0
- Morningglory plant response rating (morningglory; [20]): 0
- Morningglory plant response rating (morningglory; [26]): 2
- Ducksalad plant response rating (duck salad; [21]): 0
- Ducksalad plant response rating (duck salad; [22]): 0
- Ducksalad plant response rating (duck salad; Rate 62 g/ha, Postemergence (flood test species), scale of 0 to 10 where 0 is no effect and 10 is complete control): 0
- Ducksalad plant response rating (duck salad; [23]): 0
